Tested on: human ovarian cancer cell line OVCAR-3 xenografts
Assay: OVCAR-3 xenograft growth inhibition in nude mice
Type: in vivo
Conditions: 80 mg/kg i.p. once daily
Procedure: All the procedures related to animal handling, care, and the treatment in the study were performed following guidelines approved by an Institutional Animal Care and Use Committee (IACUC) of Crown Bioscience, Inc. (Santa Clara, Calif., USA, a contract research organization we hired) based on the guidance of the Association for Assessment and Accreditation of Laboratory Animal Care (AAALAC). Animals were checked for any effects of tumor growth and drug treatment on normal behavior such as mobility, food and water consumption, body weight gain/loss (gross body weights were measured twice weekly), eye/hair matting, and any other abnormal effect. Death and observed clinical signs were recorded on the basis of the number of animals within each group. Individual animals with a tumor volume exceeding 3,000 mm^3 or animals of a group with a mean tumor volume exceeding 2,000 mm^3 were euthanized. In addition, animals showing signs of severe distress and/or pain, dropping body weight more than 20% from that at the start of treatment, or losing the capability of accessing adequate food or water were humanely sacrificed.
Each mouse was inoculated subcutaneously at the right flank with the LNCaP cells (1×10^7) in 0.1 ml of PBS for tumor development. When a mean tumor volume reached around 150 mm^3, the tumor-bearing mice were divided into homogeneous blocks based on their tumor volumes followed by a randomization of mice in each block into treatment groups (thus minimizing variations in tumor response to treatments due to the differential in initial mean tumor volumes). Each treatment group was consisted of 8 tumor-bearing mice. Vehicle (DMSO) or ITE in the vehicle at specified doses were administered to the mice by either i.p. (intraperitoneal) or p.o. (oral) injection once or twice daily for 28 continuous days as indicated.
Tumor volume was measured twice weekly in two dimensions using a caliper and the volume was calculated with a formula of: V=0.5 a×b^2, where a and b are the long and short diameter (in mm) of a tumor, respectively. The tumor volume was then used for calculations of both TGI (Tumor Growth Inhibition) and TGD (Tumor Growth Delay). The TGI was determined by: TGI=ΔT/ΔC×100%, where ΔT was a difference between the mean tumor volume at a specified day of observation and that at the day treatment starts (day 1) for a drug treated group whereas ΔC was the same difference measured for the control group. The TGD was calculated as: TGD=T−C, where T was the time (in days) required for tumors in a drug treated group to reach a predetermined mean tumor volume and C the time (in days) in the control group to reach the same volume. A tumor weight was derived by equating 1,000 mm^3 in volume to 1,000 mg in weight. A net body weight was then derived by subtracting a tumor weight from a corresponding gross body weight with the tumor.
Summary statistics, including mean and the standard error of the mean (SEM), are provided for the tumor volume of each group at each time point. Statistical analysis of difference in tumor volume among groups was conducted on a data set either at the best therapeutic time point or at the final dosing day as indicated. The tumor volume data were log-transformed and evaluated using a one-way ANOVA followed by Tukey's test when significance was observed. All data were analyzed using SPSS 16.0 and p<0.05 was considered to be statistically significant.
The culture and inoculation of human prostate cancer cell line LNCaP were as described in Example 1. The manipulation for human liver cancer cell line HepG2 (ATCC) was similar as that for LNCaP except that DMEM (instead of RPMI-1640) medium was used, the L-glutamine was not used, and 2×10^6 cells were used for inoculation into female nude mice. The handling of human ovarian cancer cell line OVCAR-3 (ATCC) was the same as that of LNCaP except that the DMEM medium was used and 5×10^6 cells were used for inoculation into female nude mice. […]

## COC(=O)c1csc(C(=O)c2c[nH]c3ccccc23)n1 [ITE, 2-(1′H-indole-3′-carbonyl)-thiazole-4-carboxylic acid methyl ester]
  net body weight loss: no obvious net body weight loss
At a tumor volume of 800 mm^3
  TGD (Tumor Growth Delay): 10 days
Day 33, TGI=ΔT/ΔC×100%
  TGI (Tumor Growth Inhibition): 47%

Source: patent US10632106B2, “Methods of cancer treatment with 2-(1′H-Indole-3′-carbonyl)-thiazole-4-carboxylic acid methyl ester” (Ariagen, Inc., priority 2009, dated 2020)
